Laboratory results: patent US12492173B2, “Herbicidal substituted N-tetrazolyl aryl carboxamides” (Bayer Aktiengesellschaft, priority 2019, dated 2025)

Experiments:
Format in all cases: in vivo
Polygonum convolvulus = experiment: Pre-emergence herbicidal action, POLCO; details: dosage 320 g/ha; for herbicidal activity POLCO: scored visually after 3 weeks vs untreated controls (100% = plants have died)
How it was run: (§1)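 Application took place on the soil surface immediately after sowing into sandy loam, using aqueous WP or EC preparations with 0.2% wetting agent. Visual percent scoring followed 3 weeks later, untreated pots serving as reference.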

Stellaria media [1] = experiment: Pre-emergence herbicidal action, STEME; parameters: key to Herbicidal action against STEME: % activity: 100 = plants have died, 0 = like control plants; details: for herbicidal action STEME / herbicidal activity STEME: dosage 320 g/ha; for herbicidal activity STEME: scored visually after 3 weeks vs untreated controls (100% = plants have died)
How it was run: as §1

Cyperus esculentus = experiment: Post-emergence herbicidal action, CYPES; parameters: key: % herbicidal action vs untreated; 100 = plants died, 0 = like control
Description: [table] 2. Post-Emergence Herbicidal Action Against Harmful Plants Seeds of monocotyledonous and dicotyledonous weed and crop plants are laid out in sandy loam soil in wood-fiber pots, covered with soil and cultivated in a greenhouse under good growth conditions. 2 to 3 weeks after sowing, the test plants are treated at the one-leaf stage. The compounds of the invention, formulated in the form of wettable powders (WP) or as emulsion concentrates (EC), are then sprayed onto the green parts of the plants in the form of an aqueous suspension or emulsion at a water application rate equating to 600 to 800 l/ha, with addition of 0.2% wetting agent. After the test plants have been left to stand in the greenhouse under optimal growth conditions for about 3 weeks, the action of the preparations is assessed visually in comparison to untreated controls (herbicidal action in percent (%): 100% activity=the plants have died, 0% activity=like control plants). […] The tables below illustrate, in an exemplary manner, the post-emergence herbicidal action of the compounds according to the invention, the herbicidal activity being stated in percent. In the experiments that follow, herbicidal action of numerous inventive compounds and the known compounds that are structurally closest from D1 (WO 2012/028579 A1) and D2 (WO 2018/202535 A1) were compared under the above-specified conditions by the pre-emergence and post-emergence method. The example numbers given in the tables relate to the compounds disclosed in the respective documents. In addition to the compounds disclosed in D1 and D2, the following compounds V-1 to V-14 that are encompassed by D1 or D2 but are not compounds specified therein were used in the comparative experiments: • V-1: 2-(methylsulfanyl)-3-(methylsulfinyl)-N-(1-methyl-1H-tetrazol-5-yl)-4-(trifluoromethyl)benzamide • V-2: 2-(methylsulfanyl)-3-(methylsulfonyl)-N-(1-methyl-1H-tetrazol-5-yl)-4-(trifluoromethyl)benzamide • V-3: 2,3-bis(ethylsulfanyl)-N-(1-methyl-1H-tetrazol-5-yl)-4-(trifluoromethyl)benzamide • V-4: 2-chloro-3-(ethylsulfanyl)-N-(1-methyl-1H-tetrazol-5-yl)-4-(trifluoromethyl)benzamide • V-5: 2-chloro-4-iodo-3-(methylsulfanyl)-N-(1-methyl-1H-tetrazol-5-yl)benzamide • V-6: 2-chloro-4-iodo-3-(methylsulfinyl)-N-(1-methyl-1H-tetrazol-5-yl)benzamide • V-7: 2-chloro-4-iodo-3-(methylsulfonyl)-N-(1-methyl-1H-tetrazol-5-yl)benzamide • V-8: 2-bromo-3-(methylsulfanyl)-N-(1-methyl-1H-tetrazol-5-yl)-4-(trifluoromethyl)benzamide • V-9: 2-bromo-3-(methylsulfinyl)-N-(1-methyl-1H-tetrazol-5-yl)-4-(trifluoromethyl)benzamide • V-10: 2-bromo-3-(methylsulfonyl)-N-(1-methyl-1H-tetrazol-5-yl)-4-(trifluoromethyl)benzamide • V-11: 2-bromo-3-(ethylsulfanyl)-N-(1-methyl-1H-tetrazol-5-yl)-4-(trifluoromethyl)benzamide • V-12: 2-bromo-3-(ethylsulfinyl)-N-(1-methyl-1H-tetrazol-5-yl)-4-(trifluoromethyl)benzamide • V-13: 2-bromo-3-(ethylsulfonyl)-N-(1-methyl-1-1H-tetrazol-5-yl)-4-(trifluoromethyl)benzamide • V-14: 2-cyclopropyl-3-(ethylsulfanyl)-N-(1-methyl-1H-tetrazol-5-yl)-4-(trifluoromethyl)benzamide Herbicidal Pre-Emergence Action: […]

Stellaria media [2] = experiment: Post-emergence herbicidal action, STEME; parameters: key: % herbicidal action vs untreated; 100 = plants died, 0 = like control
How it was run: (§2)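 Treatment: post-emergence spray, one-leaf stage. Medium: sandy loam, greenhouse. Carrier: 600–800 l/ha water, 0.2% wetting agent. Read-out: visual % activity at ~3 weeks, untreated plants as reference.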

Viola tricolor = experiment: Post-emergence herbicidal action, VIOTR; parameters: key: % herbicidal action vs untreated; 100 = plants died, 0 = like control
How it was run: as §2

[3] = comparative experiment, post-emergence, 20 g of a.i./ha

Row | Compound | herbicidal action STEME (Stellaria media [1]) | herbicidal action STEME (Stellaria media [2]; Dosage 80 g/ha) | herbicidal action VIOTR (Viola tricolor; Dosage 80 g/ha) | herbicidal activity POLCO (Polygonum convolvulus) | herbicidal activity STEME (Stellaria media [1]) | further results
1 | Cc1ccc(C(=O)Nc2nnnn2C)c(Cl)c1C[S+](C)[O-] (racemic) [Example 1-288] | 90% | 100 | 100 |  |  | herbicidal action POLCO (Polygonum convolvulus): 80%; herbicidal action CYPES (Cyperus esculentus; Dosage 80 g/ha): 90
2 | CCS(=O)(=O)Cc1c(C(F)(F)F)ccc(C(=O)Nc2nnnn2C)c1C [Example 1-88] |  | 100 | 100 |  |  | 
3 | Cc1c(C(=O)Nc2nnnn2C)ccc(C(F)F)c1C[S+](C)[O-] (stereo not drawn) [Example 1-108] |  | 100 | 100 |  |  | herbicidal action POLCO (Polygonum convolvulus): 90%
4 | COc1c(C(=O)Nc2nnnn2C)ccc(C(F)(F)F)c1C[S+](C)[O-] (stereo not drawn) [Example 1-135] | 80% | 90 | 90 |  |  | 
5 | CSc1c(C(=O)Nc2nnnn2C)ccc(C(F)F)c1C[S+](C)[O-] (stereo not drawn) [Example 1-171] |  | 100 | 90 | 100% | 100% | 
6 | CSCc1c(C)ccc(C(=O)Nc2nnnn2C)c1Cl [Example 1-287] | 90% | 100 | 100 |  |  | 
7 | CSCc1c(C(F)F)ccc(C(=O)Nc2nnnn2C)c1Cl [Example 1-320] |  | 100 | 100 | 90% | 90% | Herbicidal action against STEME (Stellaria media [1]; comparative experiment, 20 g of a.i./ha): 90; herbicidal action CYPES (Cyperus esculentus; Dosage 80 g/ha): 80; Herbicidal action against STEME (Stellaria media [2]; comparative experiment, post-emergence, 5 g of a.i./ha): 100
8 | Cn1nnnc1NC(=O)c1ccc(C(F)(F)F)c(CS(C)(=O)=O)c1C(F)(F)C(F)(F)F [Example 1-552] |  | 90 | 90 | 90% | 100% | 
9 | CSCc1c(Cl)ccc(C(=O)Nc2nnnn2C)c1Cl [Example 1-559] | 90% |  |  |  |  | herbicidal action CYPES (Cyperus esculentus; post-emergence, dosage 80 g/ha): 90%; herbicidal action STEME (Stellaria media [2]; post-emergence, dosage 80 g/ha): 100%; herbicidal action VIOTR (Viola tricolor; post-emergence, dosage 80 g/ha): 100%
10 | CCSCc1c(C(F)(F)F)ccc(C(=O)Nc2nnnn2CC)c1C [Example 2-86] |  |  |  |  |  | herbicidal action POLCO (Polygonum convolvulus): 80%; herbicidal action CYPES (Cyperus esculentus; post-emergence, dosage 80 g/ha): 80%; herbicidal action STEME (Stellaria media [2]; post-emergence, dosage 80 g/ha): 100%; herbicidal action VIOTR (Viola tricolor; post-emergence, dosage 80 g/ha): 100%
11 | CCn1nnnc1NC(=O)c1ccc(C(F)(F)F)c(CS(=O)(=O)CC)c1C [Example 2-88] |  | 100 | 100 |  |  | 
12 | CCn1nnnc1NC(=O)c1ccc(C(F)F)c(C[S+](C)[O-])c1C (stereo not drawn) [Example 2-108] |  | 100 | 100 |  |  | 
13 | CCn1nnnc1NC(=O)c1ccc(C(F)(F)F)c(C[S+](C)[O-])c1SC (stereo not drawn) [Example 2-162] |  | 100 | 100 | 100% | 100% | 
14 | CCn1nnnc1NC(=O)c1ccc(C(F)F)c(CSC)c1SC [Example 2-170] |  | 100 | 100 | 100% | 100% | 
15 | CCn1nnnc1NC(=O)c1ccc(C(F)F)c(C[S+](C)[O-])c1SC (stereo not drawn) [Example 2-171] |  | 100 | 100 | 90% | 100% | 
16 | CCn1nnnc1NC(=O)c1ccc(S(C)(=O)=O)c(CS(C)(=O)=O)c1Cl [Example 2-280] | 80% |  |  |  |  | Herbicidal action against STEME (Stellaria media [2]; post-emergence, dosage 80 g/ha): 100; Herbicidal action against VIOTR (Viola tricolor; post-emergence, dosage 80 g/ha): 90

Row | Compound | herbicidal action STEME (Stellaria media [1]) | herbicidal action STEME (Stellaria media [2]; Dosage 80 g/ha) | herbicidal action VIOTR (Viola tricolor; Dosage 80 g/ha) | herbicidal activity POLCO (Polygonum convolvulus) | herbicidal activity STEME (Stellaria media [1]) | further results
17 | CCn1nnnc1NC(=O)c1ccc(C(F)(F)F)c(CS(=O)(=O)CC)c1Cl [Example 2-301] | 80% | 100 | 100 |  |  | 
18 | CCn1nnnc1NC(=O)c1ccc(Cl)c(CSC)c1Cl [Example 2-559] | 90% | 100 | 100 |  |  | 
19 | CCCn1nnnc1NC(=O)c1ccc(S(C)(=O)=O)c(CSC)c1C [Example 3-37] | 90% | 100 | 100 |  |  | 
20 | CCCn1nnnc1NC(=O)c1ccc(S(C)(=O)=O)c(CS(C)(=O)=O)c1C [Example 3-39] |  | 90 | 100 |  |  | 
21 | CCCn1nnnc1NC(=O)c1ccc(C(F)(F)F)c(CSCC)c1C [Example 3-86] |  | 100 | 100 |  |  | herbicidal action POLCO (Polygonum convolvulus): 90%
22 | CCCn1nnnc1NC(=O)c1ccc(C(F)(F)F)c(C[S+](C)[O-])c1OC (stereo not drawn) [Example 3-135] | 100% | 100 | 100 |  |  | herbicidal action POLCO (Polygonum convolvulus): 90%
23 | CCCn1nnnc1NC(=O)c1ccc(C(F)(F)F)c(CSC)c1SC [Example 3-161] | 100% | 100 | 100 |  |  | 
24 | CCCn1nnnc1NC(=O)c1ccc(C(F)(F)F)c(CS(C)(=O)=O)c1SC [Example 3-163] |  | 100 | 100 | 80% | 100% | 
25 | CCCn1nnnc1NC(=O)c1ccc(C(F)F)c(CSC)c1SC [Example 3-170] |  | 100 | 100 | 90% | 100% | 
26 | CCCn1nnnc1NC(=O)c1ccc(C(F)F)c(C[S+](C)[O-])c1SC (stereo not drawn) [Example 3-171] |  | 100 | 100 | 90% | 100% | 
27 | CCCn1nnnc1NC(=O)c1ccc(C(F)F)c(CS(C)(=O)=O)c1SC [Example 3-172] |  | 100 | 90 | 100% | 100% | 
28 | CCCn1nnnc1NC(=O)c1ccc(C(F)(F)F)c(CS(=O)(=O)CC)c1Cl [Example 3-301] | 90% | 100 | 100 |  |  | 
29 | CCCn1nnnc1NC(=O)c1ccc(C(F)(F)F)c(CSCC(F)(F)F)c1Cl [Example 3-311] | 90% | 100 | 90 |  |  | 
30 | CCCn1nnnc1NC(=O)c1ccc(I)c(C[S+](C)[O-])c1Cl (stereo not drawn) [Example 3-363] | 100% | 100 | 100 |  |  | 
31 | CCCn1nnnc1NC(=O)c1ccc(C(F)(F)F)c(CS(C)(=O)=O)c1Br [Example 3-382] | 100% | 100 | 90 |  |  | herbicidal action CYPES (Cyperus esculentus; Dosage 80 g/ha): 80
32 | CCS(=O)(=O)c1c(C(F)(F)F)ccc(C(=O)Nc2nnnn2C)c1Br [Example V-13, 2-bromo-3-(ethylsulfonyl)-N-(1-methyl-1-1H-tetrazol-5-yl)-4-(trifluoromethyl)benzamide, reference compound] |  |  |  |  |  | Herbicidal action against CYPES (Cyperus esculentus; [3]): 0; Herbicidal action against STEME (Stellaria media [2]; [3]): 0; Herbicidal action against VIOTR (Viola tricolor; [3]): 0
